US9352004B2, “Muscle-derived cells (MDCs) for treating muscle- or bone-related injury or dysfunction” (University of Pittsburgh—Of the Commonwealth System of …, priority 1998, dated 2016)
“Also recorded” adds a separate entry of the source. Marks after values point to notes of the source that are not given here.

Tests used:
myoblasts = experiment: Effect of growth factors on myoblast proliferation and fusion in vitro; assay type: cell-based; details: 1, 10 and 100 ng/ml, 48 and 96 hours
Method: Several growth factors, including acidic and basic fibroblast growth factors (aFGF and bFGF); epidermal growth factor (EGF); insulin-like growth factor-1 (IGF-1); platelet derived growth factor (PDGF); transforming growth factor β or α (TGF-β or TGF-α); and nerve growth factor (NGF) have been investigated for their ability to enhance the myogenic activity of muscle cells in vitro. Myoblasts were cultured with these trophic factors at different concentrations (1, 10 and 100 ng/ml), and the myoblast proliferation and differentiation were monitored at 48 and 96 hours post-incubation.

bladder = details: rat, in vivo
Method: Micturition Pattern Measurement: Urination pattern profiles were obtained using a specialized metabolic cage which deflects voided urine for collection and quantification over a 24 hour period. Micturition parameters evaluated in the described experiments included total urine output/24 hours, number of micturitions/24 hours and mean volume per micturition (M. D. Chancellor et al., 1994, J. Urol., 151:250-254; T. Watanabe et al., 1996, J. Urol., 156:1507-1510).
To first assess the role of intravesicle NO on cyclophosphamide-induced cystitis, female S.D. rats received a single intraperitoneal injection of CYP (100 mg/kg) or vehicle. Voiding parameters (mean voided volume and number of voids) were then monitored for 24 hours in a metabolic cage. Forty-eight hours after CYP injection, bladder function was studied using continuous saline infusion (0.04 ml/min) cystometry via PE-50 transurethral catheter under urethane anesthesia.

[1] = test system: meniscal fibrochondrocytes; experiment: Growth factors on meniscal fibrochondrocytes in vitro; assay type: cell-based; details: for expression of collagen and non-collagen proteins: meniscal fibrochondrocytes
From the text: In vitro data detail the effects of numerous growth factors on fibroblast proliferation and collagen production.

injured muscle = experiment: Muscle healing and twitch/tetanic strength in vivo after muscle contusion, laceration or strain; set-up: species or system mouse; key to twitch strength / tetanic strength: (+) improvement in strength vs. non-injected muscles; (−) no improvement in strength vs. non-injected muscles; details: for number of regenerating myofibers in vivo: direct injection into injured muscle (laceration, contusion, strain)
Method: Briefly, the muscle laceration was performed by cutting the gastrocnemius muscle of a mouse with scissors at 60% of its length from its distal insertion, 75% of its width, and 50% of its thickness. The muscle contusion was made by dropping a 16 gram ball through an impactor from a height of 100 centimeters onto the mouse's gastrocnemius muscle, and the muscle strain was performed by elongating the muscle-tendon unit to a pre-determined strain point at the rate of 1 cm/min.
In order to evaluate muscle healing following injury, histological staining (hematoxylin-eosin) in conjunction with immunohistochemical techniques were employed to assess the expression of desmin and vimentin. Since desmin is a cytoskeletal protein uniformly expressed in regenerating myofibers, it has been used to specifically locate regenerating myofibers. Vimentin is expressed in mononucleated fibrocytes and macrophages and has been used herein as a marker for fibrosis. […]

bladder wall = assay type: in vivo, rat; details: 100 μM TBH4, control areas of the bladder
Method: For gene therapy experiments, myoblasts were transduced with the adenovirus containing the human inducible nitric oxide synthase (iNOS) gene at a multiplicity of infection of 50 (MOI=50) and were injected into the bladder and studied after 2 to 7 days.
The bladder was injected with a similar solution; however, the cell concentration ranged from 1.33×10^5 to 1×10^6 cells per 10 μl injection. Transduced myoblasts were prepared by incubating them for 24 hours with adenovirus vector containing the iNOS gene at a multiplicity of infection of 50 virus particles per cell. Immunohistochemical staining was performed on the cultured cells to ensure adequate infection and iNOS protein production.
NO release in the bladder and penis was measured by placing the tip of a Naflon-coated porphyrinic microsensor (dia. 10 μM; detection limit, 5 nM; response time, 1 ms) directly on the bladder surface (mucosal and serosal) and on the corporal cavernosum, respectively.

urethral smooth muscle = experiment: Intraurethral NO donors: urethral perfusion pressure and isovolumetric bladder pressure; details: rat, in vivo, iv
Method: To first assess the role of NO donors on smooth muscle, urethral perfusion pressure and isovolumetric bladder pressure were measured with catheters inserted through the bladder dome in urethane anesthetized female S.D. rats (250-300 grams), (n=9). The catheter assembly was wedged in the bladder neck to block passage of fluid between the bladder and urethra without affecting the nerve supply to the organs. The external urethra was not catheterized. Responses were examined in the control state at an urethral saline infusion speed of 0.075 ml/min. After blocking striated urethral sphincter with intravenous alpha-bungarotoxin administration (100 mcg/kg), intraurethral drugs were administered.

a-FGF: acidic fibroblast growth factor
Fusion (differentiation into myotubules) (myoblasts): Stimulate | Proliferation (myoblasts): Inhibit | Fusion (differentiation into myotubules) (myoblasts; listed as aFGF): increase myoblast differentiation into myotubules

O=P1(N(CCCl)CCCl)NCCCO1 (stereo not shown) [CYP, cyclophosphamide]
number of micturitions during the 24 hours after CYP injection (bladder): 117±86 | total micturition volume (bladder): 20.5 ± 9.2 mL | voiding frequency after 7 days (bladder): 38±4

PDGF
proliferation of the meniscal fibrochondrocytes [1]: improve | expression of collagen and non-collagen proteins [1]: improve | Fusion (differentiation into myotubules) (myoblasts): Inhibit | Proliferation (myoblasts): Inhibit

EGF: epidermal growth factor
proliferation of the meniscal fibrochondrocytes [1]: improve | expression of collagen and non-collagen proteins [1]: improve | Fusion (differentiation into myotubules) (myoblasts): Inhibit | Proliferation (myoblasts): Inhibit

IGF: insulin-like growth factor-1
tetanic strength (injured muscle; Muscle contusion): +/+ | twitch strength (injured muscle; Muscle contusion): +/+ | tetanic strength (injured muscle; Muscle laceration): +/+ | twitch strength (injured muscle; Muscle laceration): +/+ | tetanic strength (injured muscle; Muscle strain): +/+ | twitch strength (injured muscle; Muscle strain): +/+ | number of regenerating myofibers in vivo (injured muscle): increase the number of regenerating myofibers | Fusion (differentiation into myotubules) (myoblasts): Stimulate | Proliferation (myoblasts): Stimulate | Fusion (differentiation into myotubules) (myoblasts; listed as IGF-1): increase myoblast differentiation into myotubules | Proliferation (myoblasts; listed as IGF-1): significantly enhanced

NGF: nerve growth factor
tetanic strength (injured muscle; Muscle contusion): +/+* | twitch strength (injured muscle; Muscle contusion): +/+* | tetanic strength (injured muscle; Muscle laceration): −/− | twitch strength (injured muscle; Muscle laceration): −/− | tetanic strength (injured muscle; Muscle strain): − | twitch strength (injured muscle; Muscle strain): + | number of regenerating myofibers in vivo (injured muscle): increase the number of regenerating myofibers | Fusion (differentiation into myotubules) (myoblasts): increase myoblast differentiation into myotubules; also recorded: Stimulate | Proliferation (myoblasts): significantly enhanced; also recorded: Stimulate

TGF-β
Fusion (differentiation into myotubules) (myoblasts): Inhibit | Proliferation (myoblasts): Inhibit

C[C@H](O)[C@H](O)[C@H]1CNc2nc(N)[nH]c(=O)c2N1 [TBH4, tetrahydrobiopterin]
duration of NO release spike (bladder wall): < 5 s | spike in NO release (bladder wall): 1 to 5 nM

b-FGF: basic fibroblast growth factor
tetanic strength (injured muscle; Muscle contusion): +/+ | twitch strength (injured muscle; Muscle contusion): +/+ | tetanic strength (injured muscle; Muscle laceration): +/+ | twitch strength (injured muscle; Muscle laceration): +/+ | tetanic strength (injured muscle; Muscle strain): +/+ | twitch strength (injured muscle; Muscle strain): +/+ | number of regenerating myofibers in vivo (injured muscle): increase the number of regenerating myofibers | proliferation of the meniscal fibrochondrocytes [1]: improve | expression of collagen and non-collagen proteins [1]: improve | Fusion (differentiation into myotubules) (myoblasts): Stimulate | Proliferation (myoblasts): significantly enhanced; also recorded: Stimulate | Fusion (differentiation into myotubules) (myoblasts; listed as bFGF): increase myoblast differentiation into myotubules

alpha-bungarotoxin
high frequency oscillations of urethral pressure (urethral smooth muscle): abolished

TGF-α: transforming growth factor α
proliferation of the meniscal fibrochondrocytes [1]: improve | expression of collagen and non-collagen proteins [1]: improve | Fusion (differentiation into myotubules) (myoblasts): Inhibit | Proliferation (myoblasts): Inhibit
